The record followed here is patent US11154559B2, “Methods and compositions of bile acids” (The General Hospital Corporation, priority 2011, dated 2021).

This experiment is described as follows: Effect of subcutaneous TUDCA on weight gain and food intake in mice on a high-fat diet. It counts as in vivo, C57BL/6J mice. The conditions noted are these: 500 mg/kg s.c. twice a week vs placebo. The procedure: To examine the effect of circulating bile acids on body weight gain, C57BL/6J mice on a high-fat diet (HFD) were given subcutaneous injections of tauroursodeoxycholic acid (TUDCA, 500 mg/kg) or placebo for 10 weeks (N=6 per group). TUDCA was prepared daily in 0.15 M NaHCO3 (pH adjusted to 7.4). TUDCA or placebo (0.15 M NaHCO3, pH 7.4) was administered twice a week (Monday/Thursday) as 10 μl solution/g of body weight. Body weight (BW) was measured and recorded immediately before each injection and used to calculate the TUDCA or placebo dose to be administered.
Animals were 10 weeks of age at the start of the experiment (BW=32.6 g±2.6) and were on a […] from weaning that provided 60% of total energy as fat, 20% as carbohydrate, and 20% as protein (D12492 diet; Research Diets, New Brunswick, N.J.). Animals were individually housed on wire floors without bedding and maintained on a 12-hour light-dark cycle (lights on at 0700 hours) in a facility with an ambient temperature of 19-22° C.
Body weight was recorded twice a week, food intake was obtained weekly, and fasting blood glucose was measured every other week.

Structures are written as SMILES.

As for `C[C@H](CCC(=O)NCCS(=O)(=O)O)[C@H]1CC[C@H]2[C@@H]3[C@@H](O)C[C@@H]4C[C@H](O)CC[C@]4(C)[C@H]3CC[C@]12C` [TUDCA, tauroursodeoxycholic acid], the “percent weight change from baseline” value (high-fat diet, FIG. 35) was “trend toward decreased weight”. For the same compound, where the note is “high-fat diet, not statistically significant, FIG. 34”, the weight gain result is “trend towards decreased weight gain”. The weekly food intake entry (FIG. 36) is “similar”. Also, the cumulative food intake result (FIG. 37) is “similar”.
